Measured values from patent US20250042911A1, “NOVEL BENZOPYRAN DERIVATIVE AND USE THEREOF” (SPARK BIOPHARMA, INC, priority 2021, published 2025).
Where a name gives a salt, the structure may show the parent alone.

What was measured:
human M2 macrophages = experiment: Inhibition of human M2 macrophage activity, hCCL22 in culture supernatant by ELISA; type: cell-based; conditions: hCCL22 secretion, THP-1 derived M2-like macrophages, compound present during 72 hours of differentiation
Method in brief: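 THP-1 monocytes were differentiated with 100 ng/mL PMA for 24 h, then polarized with 25 ng/mL hIL-4 plus 25 ng/mL hIL-13 for 72 h. Compounds were present throughout the 72 h polarization. CCL22 in the supernatant was quantified by ELISA to give inhibition or EC50.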

melanoma cells (B316F10) = experiment: Tumor growth inhibition in C57BL/6 syngeneic mouse model implanted with melanoma cells; type: in vivo; conditions: 20 mg/kg orally once a day for 9 or 10 days, female C57BL/6 mice with implanted melanoma cells, tumor volume vs control group; for inhibition in vivo at 20 mg/kg: Mus musculus, po, read-out: TGI (%)
Description: The tumor growth inhibition effect of benzopyrene derivatives was evaluated in a C57BL/6 mouse tumor model (syngeneic mouse model) in which melanoma cells (B316F10) derived from C57BL/6 mice are implanted.
After the quarantine and acclimation period was over, a cell suspension prepared with 5×10^5 cells/0.1 mL PBS was filled into a disposable syringe and administered in an amount of 0.1 mL PBS/head subcutaneously to the right back of healthy test animals (female C57BL/6, 7 weeks old) for implantation. After cell line implantation, general symptoms were observed once daily during the engraftment and growth period. Animals with no abnormalities in their health and whose tumor volume reached 50 to 100 mm^3 when measured with a digital caliper were selected. Then, based on tumor volume and body weight, the groups were separated so that the average tumor volume per group was 70 to 100 mm^3. Ten (10) animals were separated per group, and 20 mg/kg of benzopyran derivatives were administered orally once a day for 9 or 10 days. Tumor volume was measured once every 2 or 3 days.
The measured tumor volume of the test compound administered groups was compared with that of the control group and is represented in Table 2 as the tumor growth inhibition (TGI, %).

EC50 (human M2 macrophages) [µM]	Structure (SMILES)	inhibition in vivo at 20 mg/kg (melanoma cells (B316F10)) [%]	TGI (%) (melanoma cells (B316F10); phosphate)	TGI (%) (melanoma cells (B316F10))
9.5	CC1(C)Oc2cc(N3CCCC3)ccc2C2C1=CCn1c(=O)n(-c3ccc(C(=O)O)cc3)c(=O)n12 (stereo not drawn) [Example 44, 4-(7,7-dimethyl-1,3-dioxo-10-(pyrrolidin-1-yl)-5,12b-dihydro-1H,7H-chromeno[4,3-c][1,2,4]triazolo[1,2-a]pyridazin-2(3H)-yl)benzoic acid]	25 to 66		
7	CCN(c1ccc2c(c1)OC(C)(C)C1=CCn3c(=O)n(-c4ccc(C(C)=O)cc4)c(=O)n3C12)C(C)C (stereo not drawn) [Example 46, 2-(4-acetylphenyl)-10-(ethyl(isopropyl)amino)-7,7-dimethyl-5,12b-dihydro-1H,7H-chromeno[4,3-c][1,2,4]triazolo[1,2-a]pyridazine-1,3(2H)-dione]	25 to 66		
74.7	CC(=O)C(=O)N1CCN(C(=O)Oc2ccc3c(c2)OC(C)(C)C2=CCn4c(=O)n(-c5ccc(C(C)=O)cc5)c(=O)n4C23)CC1 (stereo not drawn) [Example 68, 2-(4-acetylphenyl)-7,7-dimethyl-1,3-dioxo-2,3,5,12b-tetrahydro-1H,7H-chromeno[4,3-c][1,2,4]triazolo[1,2-a]pyridazin-10-yl 4-(2-oxopropanoyl)piperazine-1-carboxylate]	25 to 66		
	CC(=O)c1ccc(-n2c(=O)n3n(c2=O)C2C(=CC3)C(C)(C)Oc3cc(OP(=O)(O)O)ccc32)cc1 (stereo not drawn) [Example 69, 2-(4-acetylphenyl)-7,7-dimethyl-1,3-dioxo-2,3,5,12b-tetrahydro-1H,7H-chromeno[4,3-c][1,2,4]triazolo[1,2-a]pyridazin-10-yl dihydrogen phosphate]	25 to 66		
4.7	CC(=O)c1ccc(-n2c(=O)n3n(c2=O)C2C(=CC3)C(C)(C)Oc3cc(OC(=O)CN(C)C)ccc32)cc1 (stereo not drawn) [Example 72, 2-(4-acetylphenyl)-7,7-dimethyl-1,3-dioxo-2,3,5,12b-tetrahydro-1H,7H-chromeno[4,3-c][1,2,4]triazolo[1,2-a]pyridazin-10-yl dimethylglycinate hydrochloride]	25 to 66		
	COCCOC(=O)Oc1ccc2c(c1)OC(C)(C)C1=CCn3c(=O)n(-c4ccc(C(C)=O)cc4)c(=O)n3C12 (stereo not drawn) [Example 73, 2-(4-acetylphenyl)-7,7-dimethyl-1,3-dioxo-2,3,5,12b-tetrahydro-1H,7H-chromeno[4,3-c][1,2,4]triazolo[1,2-a]pyridazin-10-yl (2-methoxyethyl) carbonate]	31		
	CC(=O)c1ccc(-n2c(=O)n3n(c2=O)C2C(=CC3)C(C)(C)Oc3cc(OC(=O)N4CCCC4)ccc32)cc1 (stereo not drawn) [Example 74, 2-(4-acetylphenyl)-7,7-dimethyl-1,3-dioxo-2,3,5,12b-tetrahydro-1H,7H-chromeno[4,3-c][1,2,4]triazolo[1,2-a]pyridazin-10-yl pyrrolidine-1-carboxylate]	25 to 66		
	COCCOCCOCCOCCOC(=O)Oc1ccc2c(c1)OC(C)(C)C1=CCn3c(=O)n(-c4ccc(C(C)=O)cc4)c(=O)n3C12 (stereo not drawn) [Example 75, 2-(4-acetylphenyl)-7,7-dimethyl-1,3-dioxo-2,3,5,12b-tetrahydro-1H,7H-chromeno[4,3-c][1,2,4]triazolo[1,2-a]pyridazin-10-yl (2,5,8,11-tetraoxatridecan-13-yl) carbonate]	25.5		
	CC(=O)c1ccc(-n2c(=O)n3n(c2=O)C2C(=CC3)C(C)(C)Oc3cc(OC(=O)[C@@H](N)CC(C)C)ccc32)cc1 (stereo partly drawn) [Example 81, 2-(4-acetylphenyl)-7,7-dimethyl-1,3-dioxo-2,3,5,12b-tetrahydro-1H,7H-chromeno[4,3-c][1,2,4]triazolo[1,2-a]pyridazin-10-yl L-leucinate 2,2,2-trifluoroacetic acid]	25 to 66		
	CC(=O)c1ccc(-n2c(=O)n3n(c2=O)C2C(=CC3)C(C)(C)Oc3cc(OC(=O)N(C)CCC(=O)O)ccc32)cc1 (stereo not drawn) [Example 91, 3-((((2-(4-acetylphenyl)-7,7-dimethyl-1,3-dioxo-2,3,5,12b-tetrahydro-1H,7H-chromeno[4,3-c][1,2,4]triazolo[1,2-a]pyridazin-10-yl)oxy)carbonyl)(methyl)amino)propanoic acid]	25 to 66		
	CC(=O)c1ccc(-n2c(=O)n3n(c2=O)C2C(=CC3)C(C)(C)Oc3cc(OC(=O)N(C)CCC(=O)O)ccc32)cc1 (stereo not drawn) [Example 92, sodium 3-((((2-(4-acetylphenyl)-7,7-dimethyl-1,3-dioxo-2,3,5,12b-tetrahydro-1H,7H-chromeno[4,3-c][1,2,4]triazolo[1,2-a]pyridazin-10-yl)oxy)carbonyl)(methyl)amino)propanoate]			25.5

Structure (SMILES)	EC50 (human M2 macrophages) [µM]	inhibition in vivo at 20 mg/kg (melanoma cells (B316F10)) [%]	TGI (%) (melanoma cells (B316F10); phosphate)	TGI (%) (melanoma cells (B316F10))
CC(=O)c1ccc(-n2c(=O)n3n(c2=O)C2C(=CC3)C(C)(C)Oc3cc(OC(=O)N(C)C)ccc32)cc1 (stereo not drawn) [Example 62, 2-(4-acetylphenyl)-7,7-dimethyl-1,3-dioxo-2,3,5,12b-tetrahydro-1H,7H-chromeno[4,3-c][1,2,4]triazolo[1,2-a]pyridazin-10-yl dimethylcarbamate]	41.3	32.3		
CC(=O)c1ccc(-n2c(=O)n3n(c2=O)C2C(=CC3)C(C)(C)Oc3cc(OP(=O)(O)O)ccc32)cc1 (stereo not drawn) [Example 70, disodium 2-(4-acetylphenyl)-7,7-dimethyl-1,3-dioxo-2,3,5,12b-tetrahydro-1H,7H-chromeno[4,3-c][1,2,4]triazolo[1,2-a]pyridazin-10-yl phosphate]	9.4		26.2	
CC(=O)c1ccc(-n2c(=O)n3n(c2=O)C2C(=CC3)C(C)(C)Oc3cc(OC(=O)N4CCN(C(=O)[C@@H]5CCCN5)CC4)ccc32)cc1 (stereo partly drawn) [Example 82, 2-(4-acetylphenyl)-7,7-dimethyl-1,3-dioxo-2,3,5,12b-tetrahydro-1H,7H-chromeno[4,3-c][1,2,4]triazolo[1,2-a]pyridazin-10-yl 4-(L-prolyl)piperazine-1-carboxylate hydrochloride]	68.6	66.3		
